From patent US6686444B2, “Osteopontin derived chemotactic peptides and methods of use” (Children's Medical Center Corporation, priority 1996, dated 2004) come the findings set out here.

The test system of test [1] is osteosarcoma cells. Put plainly: Modified Boyden chamber chemotaxis of osteosarcoma cells. It is filed as cell-based. The following applies: for Chemotactic activity (in words): osteosarcoma cells. On the procedure:
Purified OPN (˜0.5 mg) was digested with trypsin (2% w/w) in 0.2 ml of 50 mM NH4HCO3, pH 8.0, for 20 hours at 37° C. before treatment of the reaction products with 50 μl of 100% H2O+0.1% trifluoroacidic acid (TFA) and resolution of the peptides by HPLC chromatography on C-18 column (25×0.46 cm). After injection the column was washed for 10 min, followed by linear gradient elution from 100% H2O+0.1% TFA to 60% CH3CN+0.55% TFA over 120 min, with a second gradient from 60% CH3CN to 80% CN3CN over 30 min at a flow rate of 0.5 ml/min. The absorbance at 219 nm was recorded continuously by an on-line chart recorder/integrator using Gilson HM Holochrome detector, and fractions of 0.5 ml were collected. Each peak was then tested for mediation of chemotaxis or for its ability to inhibit OPN mediated chemotaxis using the chemotactic assay described in Example 4 below. Furthermore, each peak was also tested for its ability to promote attachment of CD44^+ or αvβx cells.
Positive peaks from tryptic digest were sequenced by gas-phase automated sequenator. Chemotactic peptides corresponding to the positive sequences were synthesized and the resulting synthetic peptides were then tested for their ability to promote either chemotaxis or to inhibit the chemotaxis to OPN as described in Example 4. Chemical synthesis of peptides provides a convenient method to test the sequence specificity and minimal length of the chemotactic peptides.
In a modified Boyden chamber, both surfaces of polycarbonate filters (pore size, 8 μm) were coated with gelatin (100 μg/ml, overnight) before 1×10^3 osteosarcoma cells were added in 500 μl to the upper chamber and incubated at 37° C. in the presence or absence of chemotactic agents in the lower chamber. After two hours, the membranes were fixed in methanol and stained with hematoxilin/toluidine blue. Responding cells on the lower surface of the filter were counted microscopically and evaluated in triplicates. Random migration was assessed by counting the number of cells that migrated to the lower surface of the filter when excess chemotactic molecule was added to the upper chamber.

Test [2] relates to peritoneal exudate cells. The test is described as follows: In vivo cellular migration into the peritoneum after intraperitoneal injection (peritoneal exudate, flow cytometry). The arrangement: species or system Mice. On the procedure:
Mice were injected intraperitoneally with varying dosages of K7 osteosarcoma-derived osteopontin. All injection volumes were 200 μl. Injections of vehicle alone (PBS) served as negative controls and vehicle plus 20 μg lipopolysaccharide (LPS) injections served as positive controls for elicitation of peritoneal exudates.
Mice were sacrificed by CO2-asphyxiation at varying times following injection. Immediately after sacrifice, peritoneal exudate was recovered by intraperitoneal injection and recovery of 10 mL PBS. The lavage procedure was performed twice on each mouse. Following this, red blood cells were lysed by hypotonic lysis with ACK lysis buffer (0.15 M NH4Cl, 1.0 mM KHCO3, 0.1 mM Na2EDTA, pH 7.4) for 5 minutes at room temperature, and the preparation was washed in DMEM, 5% FBS. Cells were resuspended in DMEM, 5% FBS for fluorescent antibody staining.
Each sample of cells to be analyzed for specific surface markers was suspended in DMEM, 5% FBS at a concentration of 0.2 to 1 million cells in 50 μl. Fluorescence-labeled antibodies were added at 1 μg/1×10^6 cells, and incubated with the cells for 30 minutes at 4° C. Samples were washed twice with 200 μl of PBS following antibody staining and fixed with 500 μl of 2% paraformaldehyde in PBS. Peritoneal exudate cells were analyzed by dual-color flow cytometry for expression of CD44 (PE), CD11b (Mac-1, FITC, macrophage marker), B220 (FITC, B-cell marker), and CD3 (FITC, T-cell marker). All antibodies were purchased from PharMingen and flow cytometric analysis was done using a Coulter EPICS flow cytometer. Controls for non-specific binding and single color controls were included.
In general terms: In flow cytometry, cells or beads pass a laser one at a time.

[3] abbreviates: Table 2, substance in lower chamber, upper chamber OPN.
Setting [4] is: Table 2, substance in lower chamber, upper chamber PBS.
Setting [5] is: Table 2, substance in lower chamber, upper chamber SP64.
[6] abbreviates: Table 2, substance in lower chamber, upper chamber peptide 51.
[7] abbreviates: Table 2, substance in upper chamber, lower chamber PBS.
Setting [8] is: Table 3, substance in lower chamber, upper chamber Ab64.
[9] abbreviates: Table 3, substance in lower chamber, upper chamber OPN.
[10] abbreviates: Table 3, substance in lower chamber, upper chamber PBS.
[11] abbreviates: Table 3, substance in lower chamber, upper chamber peptide 51.
Where [12] appears, read: Table 3, substance in upper chamber, lower chamber PBS.
The mark [13] stands for this setting: Table 4, substance in lower chamber, upper chamber OPN.
The mark [14] stands for this setting: Table 4, substance in lower chamber, upper chamber OPN(ct).
Where [15] appears, read: Table 4, substance in lower chamber, upper chamber OPN(nT).
[16] abbreviates: Table 4, substance in lower chamber, upper chamber PBS, averages from at least three experiments.
[17] abbreviates: Table 4, substance in upper chamber, lower chamber PBS.
Where [18] appears, read: 6 hours after intraperitoneal injection.

Take “VLDPK (OTHER INFORMATION: Osteopontin Derived Peptide) [peptide E]”: the entries for the “Chemotactic activity (in words)” value in test [1] and in test [1] (listed as VLDPK) were “retains some chemotactic activity” and “retains some chemotactic properties”, respectively.
With osteopontin [OPN], the “Responding cells on the lower surface of the filter” value in test [1] (setting [3]) turned out to be 43; in test [1] (setting [4]), 118; in test [1] (setting [5]), 45; in test [1] (setting [6]), 32; in test [1] (setting [7]) it was 21; in test [1] (setting [8]), 51. The “Responding cells on the lower surface of the filter” value came out at 94 in test [1] (setting [9]); 217 in test [1] (setting [10]); 65 in test [1] (setting [11]); 14 in test [1] (setting [12]); 43 in test [1] (setting [13]); 58 in test [1] (setting [14]). Moreover, the “Responding cells on the lower surface of the filter” value in test [1] (setting [15]) is 115; in test [1] (setting [16]), 98; in test [1] (setting [17]) it was 21. Further, the “Chemotactic activity (in words)” value in test [1] is listed as “chemotax toward”. The “Dose of peak response of cellular infiltrate” value in test [2] (setting [18]) is given as “around 13 μg”. The “Number of CD3+ and B220+ cells in the infiltrate” value in test [2] (setting [18]) is reported as “only marginally elevated”. Besides, in test [2] (setting [18]), the “Number of Mac-1+ cells in the infiltrate over basal levels” value is given as “increased fivefold”. Further, in test [2] (6 hours after intraperitoneal injection, dose titration), the “Cellular infiltrate in the peritoneum (in words)” value is given as “dose dependent increase”. For the same molecule, the “Dose of peak CD44+ Mac1+ cell response” value in test [2] (intraperitoneal injection) is listed as “around 7 μg”. Besides, the “Peritoneal influx of cells” value in test [2] (intraperitoneal injection, mice) was determined as 1.16 million cells.
As to “LVLAPK (OTHER INFORMATION: Osteopontin Derived Peptide) [mutant of peptide 51 with aspartic acid replaced]”, the “Chemotactic activity (in words)” value in test [1] was “failed to induce chemotaxis”.
Take “LVLDPK (OTHER INFORMATION: Osteopontin derived peptide) [peptide 51, chemotactic tryptic peptide of osteopontin, also synthesized]”: in test [1], the “Competition with OPN for the migration of cells” value is listed as “competes with OPN”. In addition, the “Responding cells on the lower surface of the filter” value in test [1] (Table 1, substance in lower chamber, upper chamber PBS) is listed as 68; in test [1] (Table 1, substance in lower chamber, upper chamber peptide 49) it was 83; in test [1] (Table 1, substance in lower chamber, upper chamber peptide 50), 56; in test [1] (Table 1, substance in lower chamber, upper chamber peptide 51), 32; in test [1] (Table 1, substance in lower chamber, upper chamber peptide 52) it was 78; in test [1] (Table 1, substance in lower chamber, upper chamber peptide 53), 62. The “Responding cells on the lower surface of the filter” value came out at 13 in test [1] (Table 1, substance in upper chamber, lower chamber PBS); 88 in test [1] (setting [3]); 128 in test [1] (setting [4]); 47 in test [1] (setting [5]); 51 in test [1] (setting [6]); 9 in test [1] (setting [7]). Also, the “Responding cells on the lower surface of the filter” value worked out at 62 in test [1] (setting [8]); 187 in test [1] (setting [9]); 243 in test [1] (setting [10]); 109 in test [1] (setting [11]); 8 in test [1] (setting [12]). In test [1], the “Chemotactic activity (in words)” value is recorded as “showed chemotactic properties”.
“KFHSHKDKLVLDPKSK (OTHER INFORMATION: Osteopontin Derived Peptide) [SP64]”: the “Responding cells on the lower surface of the filter” value in test [1] (setting [3]) is recorded as 74; in test [1] (setting [4]), 117; in test [1] (setting [5]), 66; in test [1] (setting [6]), 40; in test [1] (setting [7]) it was 4.

B1: OPN(ct): the C-terminal half of OPN after thrombin cleavage (protein)
chain: SKSRSFQVSDEQYPDATDEDLTSHMKSGESKESLDVIPVAQLLSMPSDQDNNGKGSHESSQLDEPSLETHRLEHSKESQESADQSDVIDSQASSKASLEHQSHKFHSHKDKLVLDPKSKEDDRYLKFRISHELESSSSEVN
For B1, the “Responding cells on the lower surface of the filter” value is on record as 74 in test [1] (setting [13]); 31 in test [1] (setting [14]); 76 in test [1] (setting [15]); 117 in test [1] (setting [16]); 156 in test [1] (setting [17]). Moreover, the “Chemotactic activity (in words)” value in test [1] was “chemotax toward”.
